Data as given in ChEMBL document CHEMBL3632622, “Synthesis and biological evaluation of novel N-phenyl ureidobenzenesulfonate derivatives as potential anticancer agents. Part 2. Modulation of the ring B” (Eur J Med Chem, 2015).

Key:
[1] = system: M21; experiment: Cell cycle arrest in human M21 cells assessed as accumulation at G2/M phase at 3.8 uM after 24 hrs by DAPI staining-based flow cytometry (reference value: 16%); assay type: functional
[2] = Antiproliferative activity against human HT1080 cells assessed as growth inhibition incubated for 48 hrs by sulforhodamine B assay; assay type: functional, cell-based, HT-1080; conditions: Homo sapiens, HT-1080, 48 h; read-out: IC50
[3] = system: M21; experiment: Antiproliferative activity against human M21 cells assessed as growth inhibition incubated for 48 hrs by sulforhodamine B assay; assay type: functional, cell-based; conditions: M21, 48 h
[4] = system: M21; experiment: Cell cycle arrest in human M21 cells assessed as accumulation at subG1 phase at 3.8 uM after 24 hrs by DAPI staining-based flow cytometry (reference value: 1.5%); assay type: functional
[5] = system: M21; experiment: Cell cycle arrest in human M21 cells assessed as accumulation at S phase at 3.8 uM after 24 hrs by DAPI staining-based flow cytometry (reference value: 17.4%); assay type: functional
[6] = system: MCF7; experiment: Antiproliferative activity against human MCF7 cells assessed as growth inhibition incubated for 48 hrs by sulforhodamine B assay; assay type: functional, cell-based; conditions: MCF7, 48 h
[7] = system: M21; experiment: Cell cycle arrest in human M21 cells assessed as accumulation at G0/G1 phase at 3.8 uM after 24 hrs by DAPI staining-based flow cytometry (reference value: 65.1%); assay type: functional
[8] = system: HT-29; experiment: Antiproliferative activity against human HT-29 cells assessed as growth inhibition incubated for 48 hrs by sulforhodamine B assay; assay type: functional, cell-based; conditions: HT-29, 48 h
[9] = system: M21; experiment: Cell cycle arrest in human M21 cells assessed as accumulation at G0/G1 phase at 32 uM after 24 hrs by DAPI staining-based flow cytometry (reference value: 65.1%); assay type: functional
[10] = system: M21; experiment: Cell cycle arrest in human M21 cells assessed as accumulation at subG1 phase at 32 uM after 24 hrs by DAPI staining-based flow cytometry (reference value: 1.5%); assay type: functional
[11] = system: M21; experiment: Cell cycle arrest in human M21 cells assessed as accumulation at S phase at 32 uM after 24 hrs by DAPI staining-based flow cytometry (reference value: 17.4%); assay type: functional
[12] = system: M21; experiment: Cell cycle arrest in human M21 cells assessed as accumulation at G2/M phase at 32 uM after 24 hrs by DAPI staining-based flow cytometry (reference value: 16%); assay type: functional
[13] = system: M21; experiment: Cell cycle arrest in human M21 cells assessed as accumulation at G0/G1 phase at 49 uM after 24 hrs by DAPI staining-based flow cytometry (reference value: 65.1%); assay type: functional
[14] = system: M21; experiment: Cell cycle arrest in human M21 cells assessed as accumulation at S phase at 49 uM after 24 hrs by DAPI staining-based flow cytometry (reference value: 17.4%); assay type: functional
[15] = system: M21; experiment: Cell cycle arrest in human M21 cells assessed as accumulation at subG1 phase at 49 uM after 24 hrs by DAPI staining-based flow cytometry (reference value: 1.5%); assay type: functional
[16] = system: M21; experiment: Cell cycle arrest in human M21 cells assessed as accumulation at G2/M phase at 49 uM after 24 hrs by DAPI staining-based flow cytometry (reference value: 16%); assay type: functional
[17] = system: M21; experiment: Cell cycle arrest in human M21 cells assessed as accumulation at subG1 phase at 43 uM after 24 hrs by DAPI staining-based flow cytometry (reference value: 1.5%); assay type: functional
[18] = system: M21; experiment: Cell cycle arrest in human M21 cells assessed as accumulation at G0/G1 phase at 43 uM after 24 hrs by DAPI staining-based flow cytometry (reference value: 65.1%); assay type: functional
[19] = system: M21; experiment: Cell cycle arrest in human M21 cells assessed as accumulation at S phase at 43 uM after 24 hrs by DAPI staining-based flow cytometry (reference value: 17.4%); assay type: functional
[20] = system: M21; experiment: Cell cycle arrest in human M21 cells assessed as accumulation at G2/M phase at 43 uM after 24 hrs by DAPI staining-based flow cytometry (reference value: 16%); assay type: functional
[21] = system: M21; experiment: Cell cycle arrest in human M21 cells assessed as accumulation at S phase at 40 uM after 24 hrs by DAPI staining-based flow cytometry (reference value: 17.4%); assay type: functional
[22] = system: M21; experiment: Cell cycle arrest in human M21 cells assessed as accumulation at G0/G1 phase at 40 uM after 24 hrs by DAPI staining-based flow cytometry (reference value: 65.1%); assay type: functional
[23] = system: M21; experiment: Cell cycle arrest in human M21 cells assessed as accumulation at G2/M phase at 40 uM after 24 hrs by DAPI staining-based flow cytometry (reference value: 16%); assay type: functional
[24] = system: M21; experiment: Cell cycle arrest in human M21 cells assessed as accumulation at subG1 phase at 40 uM after 24 hrs by DAPI staining-based flow cytometry (reference value: 1.5%); assay type: functional
[25] = system: M21; experiment: Cell cycle arrest in human M21 cells assessed as accumulation at S phase at 25 uM after 24 hrs by DAPI staining-based flow cytometry (reference value: 17.4%); assay type: functional
[26] = system: M21; experiment: Cell cycle arrest in human M21 cells assessed as accumulation at G2/M phase at 25 uM after 24 hrs by DAPI staining-based flow cytometry (reference value: 16%); assay type: functional
[27] = system: M21; experiment: Cell cycle arrest in human M21 cells assessed as accumulation at G0/G1 phase at 25 uM after 24 hrs by DAPI staining-based flow cytometry (reference value: 65.1%); assay type: functional
[28] = system: M21; experiment: Cell cycle arrest in human M21 cells assessed as accumulation at subG1 phase at 25 uM after 24 hrs by DAPI staining-based flow cytometry (reference value: 1.5%); assay type: functional
[29] = system: M21; experiment: Cell cycle arrest in human M21 cells assessed as accumulation at subG1 phase at 11 uM after 24 hrs by DAPI staining-based flow cytometry (reference value: 1.5%); assay type: functional
[30] = system: M21; experiment: Cell cycle arrest in human M21 cells assessed as accumulation at G2/M phase at 11 uM after 24 hrs by DAPI staining-based flow cytometry (reference value: 16%); assay type: functional
[31] = system: M21; experiment: Cell cycle arrest in human M21 cells assessed as accumulation at G0/G1 phase at 11 uM after 24 hrs by DAPI staining-based flow cytometry (reference value: 65.1%); assay type: functional
[32] = system: M21; experiment: Cell cycle arrest in human M21 cells assessed as accumulation at S phase at 11 uM after 24 hrs by DAPI staining-based flow cytometry (reference value: 17.4%); assay type: functional
[33] = system: M21; experiment: Cell cycle arrest in human M21 cells assessed as accumulation at G2/M phase at 1.2 uM after 24 hrs by DAPI staining-based flow cytometry (reference value: 16%); assay type: functional
[34] = system: M21; experiment: Cell cycle arrest in human M21 cells assessed as accumulation at subG1 phase at 1.2 uM after 24 hrs by DAPI staining-based flow cytometry (reference value: 1.5%); assay type: functional
[35] = system: M21; experiment: Cell cycle arrest in human M21 cells assessed as accumulation at S phase at 1.2 uM after 24 hrs by DAPI staining-based flow cytometry (reference value: 17.4%); assay type: functional
[36] = system: M21; experiment: Cell cycle arrest in human M21 cells assessed as accumulation at G0/G1 phase at 1.2 uM after 24 hrs by DAPI staining-based flow cytometry (reference value: 65.1%); assay type: functional
[37] = system: M21; experiment: Cell cycle arrest in human M21 cells assessed as accumulation at G2/M phase at 22 uM after 24 hrs by DAPI staining-based flow cytometry (reference value: 16%); assay type: functional
[38] = system: M21; experiment: Cell cycle arrest in human M21 cells assessed as accumulation at subG1 phase at 22 uM after 24 hrs by DAPI staining-based flow cytometry (reference value: 1.5%); assay type: functional
[39] = system: M21; experiment: Cell cycle arrest in human M21 cells assessed as accumulation at S phase at 22 uM after 24 hrs by DAPI staining-based flow cytometry (reference value: 17.4%); assay type: functional
[40] = system: M21; experiment: Cell cycle arrest in human M21 cells assessed as accumulation at G0/G1 phase at 22 uM after 24 hrs by DAPI staining-based flow cytometry (reference value: 65.1%); assay type: functional
[41] = system: M21; experiment: Cell cycle arrest in human M21 cells assessed as accumulation at subG1 phase at 7.5 uM after 24 hrs by DAPI staining-based flow cytometry (reference value: 1.5%); assay type: functional
[42] = system: M21; experiment: Cell cycle arrest in human M21 cells assessed as accumulation at G2/M phase at 7.5 uM after 24 hrs by DAPI staining-based flow cytometry (reference value: 16%); assay type: functional
[43] = system: M21; experiment: Cell cycle arrest in human M21 cells assessed as accumulation at S phase at 7.5 uM after 24 hrs by DAPI staining-based flow cytometry (reference value: 17.4%); assay type: functional
[44] = system: M21; experiment: Cell cycle arrest in human M21 cells assessed as accumulation at G0/G1 phase at 7.5 uM after 24 hrs by DAPI staining-based flow cytometry (reference value: 65.1%); assay type: functional
[45] = system: M21; experiment: Cell cycle arrest in human M21 cells assessed as accumulation at G2/M phase at 42 uM after 24 hrs by DAPI staining-based flow cytometry (reference value: 16%); assay type: functional
[46] = system: M21; experiment: Cell cycle arrest in human M21 cells assessed as accumulation at S phase at 42 uM after 24 hrs by DAPI staining-based flow cytometry (reference value: 17.4%); assay type: functional
[47] = system: M21; experiment: Cell cycle arrest in human M21 cells assessed as accumulation at G0/G1 phase at 42 uM after 24 hrs by DAPI staining-based flow cytometry (reference value: 65.1%); assay type: functional
[48] = system: M21; experiment: Cell cycle arrest in human M21 cells assessed as accumulation at subG1 phase at 42 uM after 24 hrs by DAPI staining-based flow cytometry (reference value: 1.5%); assay type: functional
[49] = system: M21; experiment: Cell cycle arrest in human M21 cells assessed as accumulation at G0/G1 phase at 1.7 uM after 24 hrs by DAPI staining-based flow cytometry (reference value: 65.1%); assay type: functional
[50] = system: M21; experiment: Cell cycle arrest in human M21 cells assessed as accumulation at S phase at 1.7 uM after 24 hrs by DAPI staining-based flow cytometry (reference value: 17.4%); assay type: functional
[51] = system: M21; experiment: Cell cycle arrest in human M21 cells assessed as accumulation at G2/M phase at 1.7 uM after 24 hrs by DAPI staining-based flow cytometry (reference value: 16%); assay type: functional
[52] = system: M21; experiment: Cell cycle arrest in human M21 cells assessed as accumulation at subG1 phase at 1.7 uM after 24 hrs by DAPI staining-based flow cytometry (reference value: 1.5%); assay type: functional

IC50 [6] [µM]	IC50 [8] [µM]	SMILES	IC50 [2] [µM]	IC50 [3] [µM]	further results
1	0.55	O=C(NCCCl)Nc1ccc(S(=O)(=O)Oc2cc(Cl)cc(Cl)c2)cc1	1.1	0.51	Activity [1]: 84.3%; Activity [4]: 7.2%; Activity [5]: 6%; Activity [7]: 2.5%
5.7	4.8	O=C(NCCCl)Nc1ccc(S(=O)(=O)Oc2cc(F)cc(F)c2)cc1	5.7	5	Activity [9]: 7.4%; Activity [10]: 6.7%; Activity [11]: 10.2%; Activity [12]: 75.7%
9.5	7.8	CCOc1ccc(OS(=O)(=O)c2ccc(NC(=O)NCCCl)cc2)cc1	8.3	8.3	Activity [13]: 13.4%; Activity [14]: 8.2%; Activity [15]: 3.5%; Activity [16]: 74.9%
7.1	6.5	CCCCOc1ccc(OS(=O)(=O)c2ccc(NC(=O)NCCCl)cc2)cc1	3.4	7.7	Activity [17]: 8.3%; Activity [18]: 39.7%; Activity [19]: 9.1%; Activity [20]: 42.9%
9.4	8.3	O=C(NCCCl)Nc1ccc(S(=O)(=O)Oc2ccc(Br)cc2)cc1	9.6	8.1	Activity [21]: 4.4%; Activity [22]: 12%; Activity [23]: 76.1%; Activity [24]: 7.5%
4.2	3.8	COc1cccc(OS(=O)(=O)c2ccc(NC(=O)NCCCl)cc2)c1	3.1	3.6	Activity [25]: 6.3%; Activity [26]: 87.7%; Activity [27]: 2.5%; Activity [28]: 3.5%
3.3	3.2	CCOc1cccc(OS(=O)(=O)c2ccc(NC(=O)NCCCl)cc2)c1	3.3	2.4	Activity [29]: 8.4%; Activity [30]: 55.9%; Activity [31]: 22.2%; Activity [32]: 13.5%
0.4	0.3	O=C(NCCCl)Nc1ccc(S(=O)(=O)Oc2cc(Br)cc(Br)c2)cc1	0.4	0.24	Activity [33]: 83.4%; Activity [34]: 7.1%; Activity [35]: 6.9%; Activity [36]: 2.6%
3.9	3.4	CCCc1cccc(OS(=O)(=O)c2ccc(NC(=O)NCCCl)cc2)c1	2.6	3.3	Activity [37]: 78.3%; Activity [38]: 6%; Activity [39]: 5.8%; Activity [40]: 9.9%
2	1.1	COc1cc(OC)cc(OS(=O)(=O)c2ccc(NC(=O)NCCCl)cc2)c1	1.5	1.1	Activity [41]: 11.4%; Activity [42]: 74.1%; Activity [43]: 5.2%; Activity [44]: 9.3%
8.9	7	O=C(NCCCl)Nc1ccc(S(=O)(=O)Oc2ccc(F)c(F)c2)cc1	8.1	7.3	Activity [45]: 62.5%; Activity [46]: 18.3%; Activity [47]: 11.6%; Activity [48]: 7.6%
0.66	0.5	COc1cc(OS(=O)(=O)c2ccc(NC(=O)NCCCl)cc2)cc(OC)c1OC	0.64	0.47	Activity [49]: 15.6%; Activity [50]: 9%; Activity [51]: 66.1%; Activity [52]: 9.3%
